Assay results published in patent US5061794A, “Cephalosporin derivatives, and antibacterial agents” (priority 1986, dated 1991).
In brackets after ≈: the same amount, converted by molar mass. Where two headings read alike, the source gives them in different places.

Key:
E. cloacae Nek 39 = assay: in vitro antibacterial activity, agar plate dilution method (MIC); format: cell-based; details: 10^6 CFU/ml; for MIC: Enterobacter cloacae, NEK39, 16 h, read-out: Minimum Inhibitory Concentration (MIC), *E. cloacae Nek 39, lactamase-producing strain
In short: (§1)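 First, strains were cultured overnight in Mueller Hinton broth. Next, one loopful went onto drug-containing Mueller Hinton agar (10^6 CFU/ml). Finally, after 37° C. incubation for 16 hours, MIC was determined in μg/ml.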

K. pneumoniae PCI-602 = assay: as above; format: cell-based; details: Klebsiella pneumoniae, PCI602, 16 h, 10^6 CFU/ml
In short: as §1

K. oxytoca GN10650 = assay: as above; format: cell-based; details: 10^6 CFU/ml; for MIC: Klebsiella oxytoca, GN10650, 16 h, read-out: Minimum Inhibitory Concentration (MIC), *K. oxytoca GN10650, lactamase-producing strain
In short: as §1

P. vulgaris No. 33 = assay: as above; format: cell-based; details: 10^6 CFU/ml; for MIC: Proteus vulgaris, NO.33, 16 h, read-out: Minimum Inhibitory Concentration (MIC), *P. vulgaris No. 33, lactamase-producing strain
In short: as §1

E. coli GN5482 = assay: as above; format: cell-based; details: 10^6 CFU/ml; for MIC: Escherichia coli
In short: as §1

M. morganii GN5407 = assay: as above; format: cell-based; details: 10^6 CFU/ml; for MIC: Morganella morganii, GN5407, 16 h, read-out: Minimum Inhibitory Concentration (MIC), *M. morganii GN5407, lactamase-producing strain
In short: as §1

S. marcescens IAM 1184 = assay: as above; format: cell-based; details: Serratia marcescens, IAM1184, 16 h, read-out: Minimum Inhibitory Concentration (MIC)
In short: as §1

E. cloacae 963 = assay: as above; format: cell-based; details: 10^6 CFU/ml; for MIC: Enterobacter cloacae, 963, 16 h, read-out: Minimum Inhibitory Concentration (MIC), E. cloacae 963
In short: as §1

S. aureus 209P NIHJ-JC1 = assay: as above; format: cell-based; details: 10^6 CFU/ml, 37° C., 16 hours; for MIC: Staphylococcus aureus, 16 h
In short: as §1

P. vulgaris HX-19 = assay: as above; format: cell-based; details: P. vulgaris HX-19, 10^6 CFU/ml; for MIC: Proteus vulgaris, HX19, 16 h, read-out: Minimum Inhibitory Concentration (MIC)
In short: as §1

E. coli NIHJ JC2 = assay: as above; format: cell-based; details: Escherichia coli, NIHJJC2, 16 h, read-out: Minimum Inhibitory Concentration (MIC), E. coli NIHJ JC2, 10^6 CFU/ml, 37° C.
In short: as §1

K. pneumoniae No. 42 = assay: as above; format: cell-based; details: 10^6 CFU/ml; for MIC: Klebsiella pneumoniae, NO.42, 16 h, read-out: Minimum Inhibitory Concentration (MIC), *K. pneumoniae No. 42, lactamase-producing strain
In short: as §1

S. marcescens No. 16-2 = assay: as above; format: cell-based; details: Serratia marcescens, NO.162, 16 h
In short: as §1

Ps. cepacia 23 = assay: as above; format: cell-based, Pseudomonas cepacia; details: for MIC: read-out: Minimum Inhibitory Concentration (MIC)
In short: as §1

E. coli CSH(RE45) = assay: microbe, parasite or virus in culture; format: cell-based; details: 10^6 CFU/ml; for MIC: Escherichia coli, 16 h, read-out: Minimum Inhibitory Concentration (MIC), *E. coli CSH(RE45), lactamase-producing strain
In short: as §1

E. coli CSH2 (RK1) = assay: microbe, parasite or virus in culture; format: cell-based; details: 10^6 CFU/ml; for MIC: Escherichia coli, 16 h, read-out: Minimum Inhibitory Concentration (MIC), *E. coli CSH2 (RK1), lactamase-producing strain
In short: as §1

A. calcoaceticus No. 4 = assay: in vitro antibacterial activity, agar plate dilution method (MIC); format: cell-based, Acinetobacter calcoaceticus; details: A. calcoaceticus No. 4, 10^6 CFU/ml; for MIC: Acinetobacter calcoaceticus, NO.4, 16 h, read-out: Minimum Inhibitory Concentration (MIC)
In short: as §1

Ps. aeruginosa IF03445 = assay: as above; format: cell-based, Pseudomonas aeruginosa; details: 10^6 CFU/ml; for MIC: Pseudomonas aeruginosa, IF03445, 16 h, read-out: Minimum Inhibitory Concentration (MIC), Ps. aeruginosa IF03445
In short: as §1

Ps. aeruginosa AK 109 = assay: as above; format: cell-based, Pseudomonas aeruginosa; details: for MIC: Pseudomonas aeruginosa, AK109, 16 h, read-out: Minimum Inhibitory Concentration (MIC)
In short: as §1

Ps. aeruginosa AKR17 = assay: as above; format: cell-based, Pseudomonas aeruginosa; details: Ps. aeruginosa AKR17, 10^6 CFU/ml; for MIC: Pseudomonas aeruginosa, 16 h, read-out: Minimum Inhibitory Concentration (MIC)
In short: as §1

[1] = K. pneumoniae PCI-602, read-out: Minimum Inhibitory Concentration (MIC)
[2] = S. marcescens IAM 1184, 10^6 CFU/ml

Row | Compound | MIC (E. cloacae Nek 39) [µg/mL] | MIC (K. pneumoniae PCI-602; [1]) [µg/mL] | MIC (K. oxytoca GN10650) [µg/mL] | MIC (P. vulgaris No. 33) [µg/mL] | MIC (M. morganii GN5407) [µg/mL] | MIC (S. marcescens IAM 1184; [2]) [µg/mL] | MIC (E. cloacae 963) [µg/mL] | MIC (P. vulgaris HX-19) [µg/mL] | MIC (E. coli NIHJ JC2) [µg/mL] | MIC (K. pneumoniae No. 42) [µg/mL] | MIC (E. coli CSH(RE45)) [µg/mL] | MIC (E. coli CSH2 (RK1)) [µg/mL] | MIC (A. calcoaceticus No. 4) [µg/mL] | MIC (Ps. aeruginosa IF03445) [µg/mL] | MIC (Ps. aeruginosa AK 109) [µg/mL] | MIC (Ps. aeruginosa AKR17) [µg/mL] | also measured
1 | CC(C)(O/N=C(\C(=O)N[C@@H]1C(=O)N2C(C(=O)O)=C(CSc3nc(C(=O)O)c(-c4ccccc4)s3)CS[C@H]12)c1csc(N)n1)C(=O)O [compound 14, reference compound] | 12.5 (≈ 17.7 µM) | 0.2 (≈ 0.284 µM) | 1.56 (≈ 2.21 µM) | 0.025 (≈ 0.0355 µM) | 0.2 (≈ 0.284 µM) | 0.1 (≈ 0.142 µM) | 1.56 (≈ 2.21 µM) | < 0.006 | 1.56 (≈ 2.21 µM) | 1.56 (≈ 2.21 µM) | 1.56 (≈ 2.21 µM) | 1.56 (≈ 2.21 µM) | 50 (≈ 70.9 µM) | 12.5 (≈ 17.7 µM) | 12.5 (≈ 17.7 µM) | > 100 | MIC (E. coli GN5482; 16 h, *E. coli GN5482, lactamase-producing strain, read-out: Minimum Inhibitory Concentration (MIC)): 3.12 µg/mL (≈ 4.43 µM); MIC (S. aureus 209P NIHJ-JC1; S. aureus 209P NIHJ-JC1, read-out: Minimum Inhibitory Concentration (MIC)): 50 µg/mL (≈ 70.9 µM); MIC (S. marcescens No. 16-2; *S. marcescens No. 16-2, lactamase-producing strain, 10^6 CFU/ml, read-out: Minimum Inhibitory Concentration (MIC)): 25 µg/mL (≈ 35.5 µM); MIC (Ps. cepacia 23; Burkholderia cepacia, 23, 16 h): 0.78 µg/mL (≈ 1.11 µM)
2 | CC(=O)Oc1ccc(-c2nc(SCC3=C(C(=O)O)N4C(=O)C(NC(=O)C(=NOC(C(=O)O)c5ccccc5)c5csc(N)n5)C4SC3)sc2CC(=O)O)cc1OC(C)=O (single isomer, unassigned) [Example 61 DB] |  | 0.025 (≈ 0.0283 µM) |  |  |  |  |  |  | 3.12 (≈ 3.53 µM) |  |  |  |  |  |  |  | Minimum Inhibitory Concentration (MIC) (E. cloacae Nek 39; *E. cloacae Nek 39, lactamase-producing strain): 0.39 µg/mL; Minimum Inhibitory Concentration (MIC) (K. oxytoca GN10650; *K. oxytoca GN10650, lactamase-producing strain): 0.2 µg/mL; Minimum Inhibitory Concentration (MIC) (P. vulgaris No. 33; *P. vulgaris No. 33, lactamase-producing strain): 0.2 µg/mL; Minimum Inhibitory Concentration (MIC) (E. coli GN5482; *E. coli GN5482, lactamase-producing strain): 1.56 µg/mL; Minimum Inhibitory Concentration (MIC) (M. morganii GN5407; *M. morganii GN5407, lactamase-producing strain): 0.39 µg/mL; MIC (S. marcescens IAM 1184): 0.39 µg/mL (≈ 0.442 µM); Minimum Inhibitory Concentration (MIC) (E. cloacae 963; E. cloacae 963): 0.78 µg/mL; Minimum Inhibitory Concentration (MIC) (S. aureus 209P NIHJ-JC1; S. aureus 209P NIHJ-JC1): 50 µg/mL; Minimum Inhibitory Concentration (MIC) (P. vulgaris HX-19): 0.05 µg/mL; Minimum Inhibitory Concentration (MIC) (K. pneumoniae No. 42; *K. pneumoniae No. 42, lactamase-producing strain): 0.39 µg/mL; MIC (S. marcescens No. 16-2; read-out: Minimum Inhibitory Concentration (MIC)): 3.12 µg/mL (≈ 3.53 µM); Minimum Inhibitory Concentration (MIC) (Ps. cepacia 23; Ps. cepacia 23, 10^6 CFU/ml): < 0.006 µg/mL; Minimum Inhibitory Concentration (MIC) (E. coli CSH(RE45); *E. coli CSH(RE45), lactamase-producing strain): 12.5 µg/mL; Minimum Inhibitory Concentration (MIC) (E. coli CSH2 (RK1); *E. coli CSH2 (RK1), lactamase-producing strain): 0.05 µg/mL; Minimum Inhibitory Concentration (MIC) (A. calcoaceticus No. 4): 0.39 µg/mL; Minimum Inhibitory Concentration (MIC) (Ps. aeruginosa IF03445; Ps. aeruginosa IF03445): 3.12 µg/mL; Minimum Inhibitory Concentration (MIC) (Ps. aeruginosa AK 109; Ps. aeruginosa AK 109, 10^6 CFU/ml): 1.56 µg/mL; Minimum Inhibitory Concentration (MIC) (Ps. aeruginosa AKR17): 0.78 µg/mL
3 | CON=C(C(=O)NC1C(=O)N2C(C(=O)O)=C(CSc3ncc(-c4ccc(O)c(O)c4)o3)CSC12)c1csc(N)n1 (stereo not drawn) [Ex. 62, sodium 75-[2-(2-aminothiazol-4-yl)-2-methoxyiminoacetamido]-3-[5-(3,4-dihydroxyphenyl)-oxazol-2-yl]thiomethyl-3-cephem-4-carboxylate] | 0.78 |  | 3.12 | 0.025 | 0.1 | 0.025 | 0.05 | < 0.006 | 0.2 | 0.025 | 0.05 | 0.025 | 0.2 | 1.56 | 3.12 | > 100 | MIC (K. pneumoniae PCI-602; read-out: Minimum Inhibitory Concentration (MIC), K. pneumoniae PCI-602): < 0.006 µg/mL; MIC (E. coli GN5482; GN5482, 16 h, read-out: Minimum Inhibitory Concentration (MIC), *E. coli GN5482, lactamase-producing strain): 1.56 µg/mL; MIC (S. aureus 209P NIHJ-JC1; read-out: Minimum Inhibitory Concentration (MIC), S. aureus 209P NIHJ-JC1): 1.56 µg/mL; MIC (S. marcescens No. 16-2; read-out: Minimum Inhibitory Concentration (MIC), *S. marcescens No. 16-2, lactamase-producing strain, 10^6 CFU/ml): 6.25 µg/mL; MIC (Ps. cepacia 23; Burkholderia cepacia, 16 h, Ps. cepacia 23, 10^6 CFU/ml): < 0.006 µg/mL
